According to ChEMBL document CHEMBL3430912, “GSK Tres Cantos Anti-Kinetoplastid Screening (TCAKS) Data”:
pIC50: −log10 of the molar value.

Tests used:
[1] = system: Leishmania donovani; assay: (§1) GSK_TCAKS: pIC50 Leishmania donovani Imaging: THP-1 Host Macrophages. Assay plates (384-well) were prepared by adding 250nL of compound to each well. For single shot assay, the final compound concentration was 5 uM. […] Automated image analysis was performed with a script developed on Acapella High Content Imaging and Analysis Software (PerkinElmer). Output: THP-1 cell count were reported for each well.; type: functional, organism-based, Homo sapiens
[2] = GSK_TCAKS: pIC50 HepG2 human cell line viability assay using luminiscence. […] Seeding density was checked to ensure that new mono-layers were not more than 50% confluent at the time of harvesting. Cell suspension was added to 500 mL of the same medium at a final density of 1.2 * 10^5 cells/mL. This cell suspension was dispensed (25 uL, 3000 cells per well) into 384-well clear-bottom plates using a Multidrop Combi dispenser. Prior to addition of the cell suspension, the screening compounds (250 nL) were pre-dispensed into the plates with an Echo liquid handler. Plates were incubated for 48 h at 37C, 5% CO2. After incubation, plates equilibrated at room temperature for 30 min before proceeding to develop the luminescent signal. The signal developer, CellTiter-Glo Reagent, was allowed to equilibrate at room temperature for 30 min and added to the plates (25uL per well) using a Multidrop Combi dispenser. Plates were left for 10 min at room temperature for stabilization and then read using a ViewLux.; type: toxicity, cell-based
[3] = target: Sterol 14-alpha demethylase (Trypanosoma cruzi (strain CL Brener), UniProt Q7Z1V1); assay: GSK_TCAKS: pIC50 CYP51 from Trypanosoma cruzi.; type: functional
[4] = system: Trypanosoma brucei brucei; assay: GSK_TCAKS: pIC50 Trypanosoma brucei viability assay using luminiscence. Assay plates (1536-well) were prepared. T. brucei cultures were harvested and counted in a CASY cell counter. A parasite suspension was prepared at a final concentration of 5 * 10^4 cells/mL in complete HMI9 medium and 6uL was dispensed to all wells containing compounds using a Multidrop Combi dispenser. 6uL of HMI9 media with 0.4% DMSO were dispensed to control columns. Plates were incubated for 24 h at 37C, 5% CO2 then tempered for 10 min at room temperature. ATP content was quantified by adding 4 uL of CellTiter-Glo Reagent (Promega) according to the manufacturer's instructions. Luminescence was measured using a ViewLux.; type: functional, organism-based; conditions: Lister 427, CASY
[5] = system: Trypanosoma cruzi; assay: GSK_TCAKS: pIC50 Trypanosoma cruzi viability assay using beta-GAL activity. This assay was run at single shot at 5uM compound concentration per well. The biological reagents consisted of NIH-3T3 host cells and trypomastigotes parasitic cells; both cell types were set to a 3.3 * 10^5 cells/mL dilution in assay DMEM by means of a CASY cell counter device using a 60um capillary. 6 uL of the mixture were dispensed per well (about 1 * 10^3 host-cells and 1 * 10^3 parasites) with a Multidrop Combi dispenser. […] In all wells, the percentage of DMSO never exceeded 0.5%. Plates incubated for four days at 37C, 5% CO2. The substrate used for the assay fluorescence intensity (FLINT) readout was resorufin-beta-D-galactopiranoside (Sigma-Aldrich) at 5uM per well. It was diluted in PBS supplemented with the soft detergent Igepal (Fluka).; type: functional, organism-based, Mus musculus; conditions: Tulahuen, NIH3T3
[6] = system: Trypanosoma cruzi; assay: (§2) GSK_TCAKS: pIC50 Trypanosoma cruzi Imaging: Infected Cells. […] Cells were then washed once with PBS before infection. T. cruzi trypomastigotes, collected at days 5 to 8 after infection from LLC-MK2 parasite infected cultures, were allowed to swim out for 4h at 37C from a centrifuged pellet (2,500 rpm/10 min/room temperature). Trypomastigotes were then collected and counted in a CASY Cell Counter. Trypomastigotes, in supplemented DMEM, were added to H9c2 cultures in a multiplicity of infection of 1 and incubated for 18 h. Cells were washed once with PBS before incubation of the infected H9c2 monolayer with trypsin (Life-Technologies) to detach cells from the flask. Cells were counted in a CASY Cell Counter using a 150 um capillary and their density set at 5 * 10^4 cells per mL in supplemented assay DMEM. Infected H9c2 were dispensed into 384-well poly-lysine coated assay plates at 50uL per well using a Multidrop Combi dispenser. After seeding them, the plates were incubated at 37C, 5% CO2 for 72h. Cultures were then fixed and stained by addition of 50 uL of a solution containing 8% formaldehyde and 4 uM DRAQ5 DNA dye (BioStatus, UK) per well. […] Five images were collected per well for reliable statistical analysis. Automated image analysis was performed with a script developed on Acapella High Content Imaging and Analysis Software (PerkinElmer). Output: percentage of infected cells per well as a second infection marker.; type: functional, organism-based, Rattus norvegicus; conditions: H9c2, 4 h
[7] = system: Leishmania donovani; assay: as §1, with “Amastigotes/Macrophages.” for “THP-1 Host Macrophages.”, “Average number of amastigotes per macrophage” for “THP-1”, “cell” for “cell count”; type: functional, organism-based, Homo sapiens; conditions: THP-1
[8] = system: Trypanosoma brucei brucei; assay: GSK_TCAKS: pIC50 Trypanosoma brucei viability assay using fluorescence intensity. Assay plates (1536-well) were prepared by dispensing 25nL of compound solution per well using an Echo acoustic dispenser (Labcyte).; type: functional, organism-based; conditions: Lister 427, 2 h
[9] = system: Trypanosoma cruzi; assay: as §2, with “H2C9” for “Trypanosoma cruzi”, “H9c2 Host Cardiomyocytes.” for “Infected Cells.”, “Number” for “percentage”, “H9c2 Host Cardiomyocytes nuclei to determine drug-related cytotoxicity.” for “infected cells per well as a second infection marker.”; type: functional, organism-based, Rattus norvegicus; conditions: H9c2, 4 h
[10] = system: Leishmania donovani; assay: as §1, with “Infected” for “THP-1 Host”, “Percent of infected macrophage cells” for “THP-1 cell count”; type: functional, organism-based, Homo sapiens; conditions: THP-1
[11] = system: Trypanosoma cruzi; assay: GSK_TCAKS: pIC50 Trypanosoma cruzi Imaging: Amastigotes/Cell. […] Cells were then washed once with PBS before infection. T. cruzi trypomastigotes, collected at days 5 to 8 after infection from LLC-MK2 parasite infected cultures, were allowed to swim out for 4h at 37C from a centrifuged pellet (2,500 rpm/10 min/room temperature). Trypomastigotes were then collected and counted in a CASY Cell Counter. Trypomastigotes, in supplemented DMEM, were added to H9c2 cultures in a multiplicity of infection of 1 and incubated for 18 h. Cells were washed once with PBS before incubation of the infected H9c2 monolayer with trypsin (Life-Technologies) to detach cells from the flask. Cells were counted in a CASY Cell Counter using a 150 um capillary and their density set at 5 * 10^4 cells per mL in supplemented assay DMEM. Infected H9c2 were dispensed into 384-well poly-lysine coated assay plates at 50uL per well using a Multidrop Combi dispenser. After seeding them, the plates were incubated at 37C, 5% CO2 for 72h. Cultures were then fixed and stained by addition of 50 uL of a solution containing 8% formaldehyde and 4 uM DRAQ5 DNA dye (BioStatus, UK) per well. […] Five images were collected per well for reliable statistical analysis. Automated image analysis was performed with a script developed on Acapella High Content Imaging and Analysis Software (PerkinElmer). Output: number of amastigotes per cell as infection level measurement.; type: functional, organism-based, Rattus norvegicus; conditions: H9c2, 4 h
[12] = system: Leishmania donovani; assay: GSK_TCAKS: pIC50 Leishmania donovani viability assay using fluorescence intensity. Assay plates (1536-well) were prepared by adding 30nL per well of compound. For single shot assay, the final compound concentration was 5uM. […] Briefly, eGFP LdBOB axenic amastigotes were harvested, fixed and counted in a CASY cell counter (Roche-Applied Science). A final concentration of 1.5 * 10^5 cells per well were prepared in amastigote media containing 500 U/mL penicillin/streptomycin (Invitrogen) and 6uL was dispensed to each experimental well using a Multidrop Combi dispenser (Thermo Scientific). 6uL of assay media was dispensed to control columns used as reference for 100% compound response. Following incubation for 72 h at 37C, 5% CO2, 2 uL of resazurin was added to each well at a final concentration of 0.5 mM in phosphate buffered saline (PBS) with IGEPAL (Sigma-Aldrich), 0.05% (v/v).; type: functional, organism-based

Chain of Sterol 14-alpha demethylase (Q7Z1V1 whole entry): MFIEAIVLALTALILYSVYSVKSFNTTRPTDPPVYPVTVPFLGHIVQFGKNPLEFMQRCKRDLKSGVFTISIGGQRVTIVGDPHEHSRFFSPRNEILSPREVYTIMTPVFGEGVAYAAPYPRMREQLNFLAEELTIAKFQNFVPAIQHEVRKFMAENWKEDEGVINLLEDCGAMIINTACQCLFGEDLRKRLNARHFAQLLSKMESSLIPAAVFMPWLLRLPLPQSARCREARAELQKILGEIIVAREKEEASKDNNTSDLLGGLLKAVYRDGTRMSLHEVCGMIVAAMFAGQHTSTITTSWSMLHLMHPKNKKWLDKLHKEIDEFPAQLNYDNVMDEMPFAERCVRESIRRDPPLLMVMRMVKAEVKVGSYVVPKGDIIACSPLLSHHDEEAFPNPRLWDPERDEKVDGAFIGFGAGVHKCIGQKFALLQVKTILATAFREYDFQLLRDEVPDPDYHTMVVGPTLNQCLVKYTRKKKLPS

Structure (SMILES)	pIC50 [1]	IC50 at 48 h [2] [µM]	pIC50 [3]	pIC50 [4]	pIC50 [5]	pIC50 [6]	pIC50 [7]	pIC50 [8]	pIC50 [9]	pIC50 [10]	pIC50 [11]	pIC50 [12]
COc1ccc(-c2cnc(C)o2)cc1S(=O)(=O)Nc1ccc(C)cc1C	< 4.30	> 100	4.60	4.50	5.55	5.50	5.60	5.20	< 4.30	5.50	5.50	5.40
CNc1nc(C)nc(N2CCc3cc(C(=O)NCc4ccc(-c5cc[nH]n5)cc4Cl)ccc32)n1	< 4.30	> 100	5.30	5.00	< 4.30	< 4.30	6.40	4.90	4.70	6.50	< 4.30	5.60
O=C(c1cccc(Nc2ncc(-c3ccc4c(c3)OCO4)cn2)c1)N1CCOCC1	< 4.20	> 126	4.70	< 4.30	5.20	5.90	5.80	4.60	5.20	5.40	6.10	5.70
O=C1CN(C(=O)c2cccc(Nc3ncc(-c4ccc5c(c4)OCO5)cn3)c2)CCN1	< 4.20	> 126	4.60	< 4.30	5.80	6.10	5.70	< 4.30	< 4.20	5.30	6.30	5.80
O=C(Nc1nc2ccccc2[nH]1)c1ccc2[nH]cnc2c1	< 4.30	50.1	5.30	< 4.40	4.60	< 4.30	5.50	< 4.40	< 4.30	5.30	4.30	5.60
CNc1nc(C)nc(N2CCc3cc(C(=O)NCc4ccc(-c5nccn5C)cc4Cl)ccc32)n1	4.60	31.6	5.80	4.70	5.30	4.90	6.10	4.90	4.30	6.10	5.30	5.30
COc1ncc(-c2ccc3ncnc(N4CCOCC4)c3c2)cc1NS(C)(=O)=O	6.00	> 100	4.40	6.30	6.30	5.20	6.20	6.50	5.80	5.30	5.60	5.50
COc1ccc(CNc2nsc3ccccc23)cc1OC	4.60	50.1	4.90	5.20	5.20	4.60	5.30	5.10	< 4.30	5.20	4.70	5.50
